Measurements as given in PubChem BioAssay (NCI).
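48-hour exposure; five concentrations; linearly interpolated endpoints. GI50 is the concentration that inhibits growth by half. TGI marks complete inhibition of growth.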

Key:
Assay in all cases: inhibition of tumour cell growth, NCI panel, 48 h
SF-268 CNS = test system: SF-268 CNS
UO-31 renal = test system: UO-31 renal
A498 renal = test system: A498 renal
786-0 renal = test system: 786-0 renal
DMS 273 small cell lung = test system: DMS 273 small cell lung
M19-MEL melanoma = test system: M19-MEL melanoma
HCT-116 colon = test system: HCT-116 colon
BT-549 breast = test system: BT-549 breast
PC-3 prostate = test system: PC-3 prostate
MDA-MB-231 breast = test system: MDA-MB-231 breast

| SMILES | TGI (SF-268 CNS) [µM] | TGI (UO-31 renal) [µM] | TGI (A498 renal) [µM] | TGI (786-0 renal) [µM] | TGI (DMS 273 small cell lung) [µM] | TGI (M19-MEL melanoma) [µM] | TGI (HCT-116 colon) [µM] | GI50 (M19-MEL melanoma) [µM] | GI50 (SF-268 CNS) [µM] | GI50 (UO-31 renal) [µM] | GI50 (BT-549 breast) [µM] | TGI (BT-549 breast) [µM] | GI50 (A498 renal) [µM] | GI50 (786-0 renal) [µM] | GI50 (PC-3 prostate) [µM] | TGI (PC-3 prostate) [µM] | GI50 (MDA-MB-231 breast) [µM] | TGI (MDA-MB-231 breast) [µM] | GI50 (HCT-116 colon) [µM] |
| --- | --- | --- | --- | --- | --- | --- | --- | --- | --- | --- | --- | --- | --- | --- | --- | --- | --- | --- | --- |
| Cc1ccc(C2=NO[C@@H]3C(=O)N(c4ccc(Cc5ccc(N6C(=O)[C@H]7C(c8ccc(C)cc8)=NO[C@H]7C6=O)cc5)cc4)C(=O)[C@H]23)cc1 | > 100 | > 100 | > 100 | > 100 | > 100 | > 100 | – | – | – | – | – | – | – | – | – | – | – | – | – |
| O=C(CC(=O)C(F)(F)F)c1csc2ccccc12 | > 100 | > 100 | – | > 100 | > 100 | > 100 | > 100 | – | – | – | – | – | – | – | – | – | – | – | – |
| O=C(C=Nc1ccccc1C(=O)[O-])c1cccs1.O=C(C=Nc1ccccc1C(=O)[O-])c1cccs1.[Cu+2] | > 100 | > 100 | > 100 | > 100 | – | > 100 | > 100 | 39.7 | – | – | – | – | – | – | – | – | – | – | – |
| CC(=O)Nc1ccc(/C=C/C(=O)c2sc(C(N)=S)nc2C)cc1 | > 100 | > 100 | > 100 | > 100 | > 100 | > 100 | – | – | – | – | – | – | – | – | – | – | – | – | – |
| CC(=O)OCC1OC(S[As](C)C)C(OC(C)=O)C1OC(C)=O (centres undefined) | 7.53 | 1.02 | 3.06 | 0.77 | – | – | 1.38 | – | 1.31 | 0.122 | 0.645 | 2.87 | 0.432 | 0.176 | 1.11 | 13.1 | 0.404 | 2.34 | 0.226 |
| NC(=S)N/N=C(/C(=O)Nc1nc2ccc([N+](=O)[O-])cc2s1)C1C(=O)NC(=S)NC1=O | > 100 | > 100 | > 100 | > 100 | – | – | > 100 | – | – | – | – | > 100 | – | – | – | > 100 | – | > 100 | – |
| O=S1c2ccc(Cl)cc2CC(SSC2Cc3cc(Cl)ccc3S(=O)c3ccccc32)c2ccccc21 (centres undefined) | > 100 | > 100 | – | > 100 | > 100 | > 100 | > 100 | – | – | – | – | – | – | – | – | – | – | – | – |
| COC(=O)C1=CC2OC1(C)C1(CC1)C2=O (centres undefined) | 43.3 | 50 | – | 31.8 | – | 51.7 | 27.8 | – | – | – | – | – | – | – | – | – | – | – | – |
| CCCC(=O)NNc1[nH]c(-c2ccc(OC)cc2)cc1C(=O)OCC | 31 | 37.8 | > 100 | 34.9 | – | – | > 100 | – | 14.6 | 19.9 | 15.7 | 31 | 35.3 | 20.1 | 19.4 | 41.4 | 16.6 | 30.2 | 37.2 |
| Nc1nccc(Nc2ccc(S(N)(=O)=O)cc2)n1 | > 100 | > 100 | > 100 | > 100 | – | – | > 100 | – | – | – | – | > 100 | – | – | – | > 100 | – | > 100 | – |
| Cc1c(CCl)c(=O)oc2c(C)c3occ(CCl)c(=O)c3cc12 | 71.7 | 31.4 | > 100 | > 100 | – | 30.3 | – | – | – | – | – | – | – | – | – | – | – | – | – |
| COC(=O)Nc1nc2ccc(Oc3ccc(NC(=O)Nc4cccc(Cl)c4)cc3)cc2[nH]1 | 15.3 | > 21.4 | 13.8 | 8.28 | – | – | 5.29 | – | 2.43 | 6.93 | 5.87 | > 21.8 | 1.64 | 1.87 | 1 | 7.1 | 3.31 | 19.3 | 1.09 |
| CCC(=C(c1ccc(OCc2ccccc2)cc1)c1ccc(OCc2ccccc2)cc1)c1ccc(OC)cc1 | > 100 | > 100 | – | > 100 | > 100 | > 100 | > 100 | – | – | – | – | – | – | – | – | – | – | – | – |
| O=C1/C(=C/c2ccc(Cl)cc2)CN(C(=O)C(Cl)Cl)C/C1=C\c1ccc(Cl)cc1 | 1.48 | 0.3 | 0.771 | 0.371 | – | – | 0.13 | – | 0.315 | 0.156 | 0.259 | 0.765 | 0.211 | 0.183 | 0.199 | 0.686 | 0.27 | 0.961 | 0.0336 |
| O=C(O)CC1(C(=O)O)CCCCC1 | > 100 | > 100 | > 100 | > 100 | – | – | > 100 | – | – | – | – | > 100 | – | – | – | > 100 | – | > 100 | – |
| O=C1/C(=C/C(Cl)=C/c2ccccc2)SC(=S)N1CCc1ccc(O)cc1 | 10.3 | 2.69 | 3.51 | 4.92 | – | – | 3.55 | – | 2.6 | 1.29 | 3.44 | > 100 | 1.86 | 2.19 | 2.1 | 7.42 | 3.82 | 34.3 | 1.01 |
| CCNc1nc(N2CC(=O)Nc3cc(OC)ccc32)c2ccccc2n1 | > 100 | > 100 | – | > 100 | – | – | > 100 | – | 0.00139 | – | 0.00237 | 3.91 | 0.00151 | 0.00994 | 0.00058 | > 100 | 0.000553 | > 100 | 0.000361 |
| CNC1C(O)CC(OC2C/C=C(\C)C/C(C)=C/C=C/CCC(C)CNC(=O)/C=C/C=C/C2C)OC1C (centres undefined) | 1.78 | 5.85 | 3.24 | 0.294 | – | 1.68 | 0.324 | – | – | – | – | 2.58 | – | – | – | 2.07 | – | 2.91 | – |
| CN(CCC(=O)O)S(=O)(=O)c1ccccc1 | > 100 | > 100 | > 100 | > 100 | – | – | > 100 | – | – | – | – | > 100 | – | – | – | > 100 | – | > 100 | – |
| Nc1nc(N)c(-c2ccc(Cl)cc2)c(CCC(=O)Nc2cccc(C(F)(F)F)c2)n1 | > 100 | > 100 | > 100 | > 100 | > 100 | – | > 100 | – | – | – | – | – | – | – | – | – | – | – | – |
| CN(C)CC1CCn2c(c(C3=C(c4cn(C)c5ccccc45)C(=O)NC3=O)c3ccccc32)C1 (centres undefined) | 7.97 | 5.96 | 9.22 | 8.17 | – | – | 6.75 | – | 3.84 | 2.69 | 5.3 | 12.2 | 4.47 | 4.26 | 3.71 | 8.03 | 3.42 | 7.56 | 3.24 |
| CC1C(=O)N(C)C2(CO)C(=O)O[C@H](C)C12O (some centres undefined) | > 100 | > 100 | – | > 100 | – | > 100 | > 100 | – | – | – | – | – | – | – | – | – | – | – | – |
